2 molecules from patent US12422427B2, “Compounds for treatment of diseases and methods of screening therefor” (Max-Planck-Gesellschaft zur Förderung der Wissenschaften …, priority 2018, dated 2025) can be followed below.

Structures are written as SMILES.

Assay [1] concerns HeLa cells expressing FUS GFP. Briefly: HeLa cell compound dose responses (FUS GFP, arsenate stress). The class given is cell-based.
Assay [2] has as its system EWSR1, TIAL1, PABPC1, G3BP1. Description: Panel of HeLa lines expressing GFP-labelled stress granule proteins, arsenate stress. In kind it is cell-based. Conditions: 1 mM arsenate, 10 μM compound. The procedure:
It was anticipated that a useful therapeutic would prevent all PLD-containing stress granule proteins from localising to stress granules. The inventors used 1 mM arsenate to stress a panel of HeLa cell lines expressing GFP fusions of stress granule proteins (EWSR1, TIAL1, PABPC1, G3BP1) with either no treatment or 10 μM lipoic acid or lipoamide.
Compound effects were assessed under a variety of conditions in HeLa or iPS cells expressing wild-type or P525L FUS GFP by live cell imaging. Different combinations of 1 h pre-treatment compound or pre-stress with arsenate followed by 1 h treatment with compound and/or stress with arsenate. Unless otherwise indicated, cells were pre-treated for 1 h using 10 μM compound from 10 mM stock in DMSO (or an equal volume of DMSO control) then stressed for 1 h with 1 mM potassium arsenate still in the presence of compound. GFP fluorescence was imaged by widefield epifluorescence using an inverted Olympus IX71 microscope with an Olympus 100× NA 1.4 Plan Apo oil immersion objective and a CoolSNAP HQ CCD camera (Photometrics), using a DeltaVision climate control unit (37° C., 5% CO2) (Applied Precision). The kinetics of pre-stress followed by treatment was analysed from images captured at 2 min intervals for 100 min, for single time points images were captured after 1 h unless otherwise indicated.

Another assay has as its target T1, G156E FUS GFP (Homo sapiens, UniProt P35637, G156E).
T1 construct: His MBP (N, cleaved yes); made in house; host or cells: baculovirus/insect cell expression system
T1 sequence (P35637 1-526 G156E): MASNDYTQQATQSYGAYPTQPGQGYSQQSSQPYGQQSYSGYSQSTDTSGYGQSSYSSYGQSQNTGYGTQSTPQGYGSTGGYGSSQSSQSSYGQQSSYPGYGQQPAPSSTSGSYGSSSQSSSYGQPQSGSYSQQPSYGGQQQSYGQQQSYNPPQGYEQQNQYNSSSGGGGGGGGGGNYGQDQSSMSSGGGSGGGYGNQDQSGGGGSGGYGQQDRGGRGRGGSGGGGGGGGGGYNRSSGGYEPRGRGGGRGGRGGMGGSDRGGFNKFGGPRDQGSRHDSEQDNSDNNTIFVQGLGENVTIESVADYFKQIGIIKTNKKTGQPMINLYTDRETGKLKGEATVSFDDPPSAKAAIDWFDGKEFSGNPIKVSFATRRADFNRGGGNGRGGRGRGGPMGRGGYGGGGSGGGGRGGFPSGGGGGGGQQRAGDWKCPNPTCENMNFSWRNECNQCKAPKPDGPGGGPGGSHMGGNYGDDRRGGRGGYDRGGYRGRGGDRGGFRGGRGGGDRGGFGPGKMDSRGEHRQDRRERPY
Description: In vitro FUS GFP solidification (aging, fibre formation, FRAP). In kind it is biochemical. Conditions: for fibre formation of G156E FUS / hardening of FUS droplets (FRAP mobile fraction): 30 μM, aging while shaking, 1 mM DTT. The procedure:
Therefore, hardening and fibre formation, another kinetic phenomenon, were analysed. In vitro FUS droplets ‘age’ over time, first hardening then tending to form amyloid/prion-like fibres. This is accelerated for G156E FUS, a mutation associated with familial ALS.
For in vitro solidification assays, FUS GFP in storage buffer was diluted in water to give 10 μM FUS, 50 mM Tris·HCl pH 7.4 and 1 mM DTT in a 20 μl volume in non-binding clear bottom 384 well plates (Greiner Bio-One, 781906). […] Fibre and droplet formation were analysed by widefield epifluorescence using a DeltaVision Elite microscope (GE Healthcare Life Sciences) with a Plan ApoN 60× NA 1.4 oil immersion objective (Olympus) and an sCMOS camera (PCO). For salt sensitivity of droplet formation FUS GFP in storage buffer was diluted in the appropriate concentration of KCl pre-mixed with compound or DMSO to generate the final KCl concentration series with 30 μM compound concentration and 0.3% DMSO.
Fluorescence recovery after photobleaching (FRAP) of FUS GFP droplets and fibres was performed on a Nikon TiE inverted microscope with a Nikon Apo 100× NA 1.49 oil immersion objective using a Yokogawa CSU-X1 spinning disc head and an Andor iXon EM+ DU-897 EMCCD camera. 10×10 px regions were bleached for […] with a 6 mW 405 nm laser using an Andor FRAPPA beam delivery unit then imaged for 5 min at 5 Hz. Recovery curve half-life and mobile fraction were calculated in ImageJ.

Where [3] appears, read: 1 h pre-treatment, 1 h arsenate stress.

Take `NC(=O)CCCCC1CCSS1` (racemic) [lipoamide, 5-(1,2-dithiolan-3-yl)pentanamide]: the “EC50 reducing stress granule number, compared among compounds” value in assay [1] (1 h 1 mM arsenate stress) is recorded as “comparable EC50”. In assay [1] (setting [3]), the “nuclear/cytoplasm FUS partition, dose response” value is “increased nuclear/cytoplasm FUS partition” and the “stress granule number, dose response” value is reported as “reducing the number of stress granules”. In assay [1] (Homo sapiens, HeLa FUS GFP, 1 h 1 mM arsenate stress, read-out: cellular EC50), the EC50 is ~10 µM. Also, the “localisation of EWSR1, TIAL1, PABPC1, G3BP1 GFP to stress granules” value in assay [2] was “localised to stress granules in the absence of treatment, and not in the presence”. Further, the “FRAP of aged G156E FUS GFP condensates” value at G156E FUS GFP (10 μM lipoamide, dextran crowding, vs 0.1% DMSO) was “maintain large FUS GFP mobile fraction and short FRAP half-life”. For the same molecule, on G156E FUS GFP, the “fibre formation of G156E FUS” value was “delayed fibre formation” and the “hardening of FUS droplets (FRAP mobile fraction)” value is listed as “delayed hardening of FUS droplets”.
With `O=C(O)CCCCC1CCSS1` (racemic) [lipoic acid, 5-(1,2-dithiolan-3-yl)pentanoic acid], the “EC50 reducing stress granule number, compared among compounds” value in assay [1] (1 h 1 mM arsenate stress) is “comparable EC50”. For the same molecule, in assay [2], the “localisation of EWSR1, TIAL1, PABPC1, G3BP1 GFP to stress granules” value is “localised to stress granules in the absence of treatment, and not in the presence”. Also, on G156E FUS GFP, the “fibre formation of G156E FUS” value is given as “delayed fibre formation” and the “hardening of FUS droplets (FRAP mobile fraction)” value is “delayed hardening of FUS droplets”.

A word on the EC50: it is the midpoint of the concentration-response curve.
